Legend:
Assay type in all cases: biochemical
[1] = system: PDE1 protein isolated from bovine brain; test: PDE 1 inhibition assay ([3H]cAMP hydrolysis); details: final concentration of the test compound 10 μM
Experimental: (§1) PDE1 protein isolated from bovine brain (MDS Pharma Services: cat. No. 146000) was pre-incubated with the respective test compound dissolved in 1% DMSO aqueous solution for 15 minutes at 25° C. in an incubation buffer (50 mM Tris-HCl, pH 7.5, 5 mM MgCl2, 2 mM CaCl2, 100 U/ml Calmodulin). After pre-incubation phase 1.01 μM [^3H]cAMP+cAMP where added as substrate to the buffer and the mixture was incubated for additional 20 minutes (25° C.).
(§2) At the end of incubation phase [^3H] Adenosine concentrations were quantified. The final concentration of the test compound is 10 μM.

[2] = target: T1, PDE3 protein isolated from human platelets (Homo sapiens, UniProt Q14432); test: PDE 3 inhibition assay ([3H]cAMP hydrolysis); details: final concentration of the test compound 10 μM; read-out: inhibition compared with the control (PDE 3)
T1 construct: PDE3 protein isolated from human platelets; tissue MDS Pharma Services 152000; host or cells: human platelets
T1 sequence (Q14432 whole entry): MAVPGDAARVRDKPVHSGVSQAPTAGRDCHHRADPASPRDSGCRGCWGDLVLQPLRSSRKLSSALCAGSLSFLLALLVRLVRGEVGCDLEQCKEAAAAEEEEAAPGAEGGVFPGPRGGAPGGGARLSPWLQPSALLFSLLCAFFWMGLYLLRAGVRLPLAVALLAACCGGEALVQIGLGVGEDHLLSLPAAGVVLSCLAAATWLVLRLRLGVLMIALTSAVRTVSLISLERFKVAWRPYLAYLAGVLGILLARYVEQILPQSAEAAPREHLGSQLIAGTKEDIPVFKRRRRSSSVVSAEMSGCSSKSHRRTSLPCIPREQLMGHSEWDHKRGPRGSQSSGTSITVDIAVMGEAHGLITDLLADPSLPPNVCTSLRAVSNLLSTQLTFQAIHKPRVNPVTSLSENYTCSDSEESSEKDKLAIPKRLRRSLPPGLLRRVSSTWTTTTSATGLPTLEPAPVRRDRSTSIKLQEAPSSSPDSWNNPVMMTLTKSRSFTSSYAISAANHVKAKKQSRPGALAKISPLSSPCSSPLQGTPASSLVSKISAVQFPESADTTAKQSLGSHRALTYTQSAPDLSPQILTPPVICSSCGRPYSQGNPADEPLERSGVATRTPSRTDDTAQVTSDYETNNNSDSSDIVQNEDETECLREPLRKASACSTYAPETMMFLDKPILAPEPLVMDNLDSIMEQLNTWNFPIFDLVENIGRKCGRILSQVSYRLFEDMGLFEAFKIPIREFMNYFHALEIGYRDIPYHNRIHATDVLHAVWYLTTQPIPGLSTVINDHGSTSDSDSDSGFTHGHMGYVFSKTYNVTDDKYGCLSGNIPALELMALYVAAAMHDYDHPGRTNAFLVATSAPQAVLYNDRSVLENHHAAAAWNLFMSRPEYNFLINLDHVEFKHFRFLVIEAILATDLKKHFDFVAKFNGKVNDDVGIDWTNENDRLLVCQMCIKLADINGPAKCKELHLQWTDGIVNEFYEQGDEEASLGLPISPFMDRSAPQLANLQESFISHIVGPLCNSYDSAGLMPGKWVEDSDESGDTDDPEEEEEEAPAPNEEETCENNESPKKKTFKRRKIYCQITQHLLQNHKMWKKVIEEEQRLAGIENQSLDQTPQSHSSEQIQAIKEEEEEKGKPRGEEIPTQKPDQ
Experimental: PDE3 protein isolated from human platelets (MDS Pharma Services: cat. No. 152000) was pre-incubated with the respective test compound dissolved in 1% DMSO aqueous solution for 15 minutes at 25° C. in an incubation buffer (50 mM Tris-HCl, pH 7.5, […], […]). After pre-incubation phase 1.01 μM [^3H]cAMP+cAMP where added as substrate to the buffer and the mixture was incubated for additional 20 minutes (25° C.). At the end of incubation phase [^3H] Adenosine concentrations were quantified. Stimulating or inhibiting effects equal or larger than 50% in comparison to vehicle (1% DMSO) control were considered as significant effects.
as §2

[3] = system: PDE4 protein from human leukemic monocyte lymphoma cell line (U937); test: PDE 4 inhibition assay ([3H]cAMP hydrolysis); details: final concentration of the test compound 10 μM
Experimental: as §1, with “PDE4” for “PDE1”, “protein” for “protein isolated”, “human leukemic monocyte lymphoma cell line (U937, for example abcam ab3959)” for “bovine brain”, “152000)” for “146000)”, “C.). At the end of incubation phase [^3H] Adenosine concentrations were quantified.” for “C.).”
as §2

| Compound | inhibition compared with the control (PDE 1) [1] [%] | inhibition at 10 µM [2] [%] | inhibition compared with the control (PDE 4) [3] [%] |
| --- | --- | --- | --- |
| O=C1/C(=C/c2ccc(O)cc2O)Oc2cc(O)cc(O)c21 [SM 29 (3), 2′,4,4′,6-Tetrahydroxy-aurone] | 52 | 39 | 29 |
| O=C1/C(=C/c2ccc(O)cc2)Oc2cc(O)cc(O)c21 [SM 30(3), 4,4′,6-Trihydroxy-aurone] | 52 | 74 | 41 |
